According to patent US11718585B2, “Bis-cyclic guanidines as antibacterial agents” (University of South Florida, priority 2017, dated 2023):

How the values were obtained:
[1] = test system: six bacteria strains; experiment: MIC, summary statements over the panel of tested bacteria; format: cell-based
Description: (§1) Minimum Inhibitory Concentrations (MICs) against Bacteria. The antimicrobial activity of the compounds was tested on the following six bacteria strains: K. pneumoniae (ATCC 13383), P. aeruginosa (ATCC27853), E. coli (ATCC 25922), vancomycin-resistant Enterococcus faecalis (ATCC 700802), Methicillin-resistant S. aureus (MRSA, ATCC 33591), Methicillin-resistant S. epidermidis (MRSE, RP62A). The procedures were followed as reported previously (Hancock et al., Immunobiology 2006, 211, 315-322). Briefly, a single colony of each bacterium was inoculated in 3 mL TSB medium and incubated overnight at 37° C. Then the bacteria culture was diluted at 1:100 and the bacteria were allowed to grow to mid-logarithmic phase. Next, 50 μL of 2-fold serial dilutions of compounds (0.1-25 μg/mL) were added the 96-well plate containing aliquots of 50 μL of bacteria suspension (1×10^6 CFU/mL) in each well. The mixture was incubated at 37° C. for 16 h, and their absorption at 600 nm wavelength was read on a Biotek Synergy HT microtiter plate reader. […] The experiments were repeated at least three times with duplicates each time. HC50 means the concentration causing 50% hemolysis.

[2] = test system: E. coli (ATCC 25922); experiment: Minimum inhibitory concentration (MIC) against E. coli; format: cell-based; settings: Escherichia coli, ATCC25922; Gram −; 16 h, 37° C.
Description: as §1

[3] = test system: P. aeruginosa (ATCC27853); experiment: MIC against P. aeruginosa; format: cell-based
Description: as §1

[4] = test system: Methicillin-resistant S. aureus (MRSA, ATCC 33591); experiment: MIC against MRSA; format: cell-based; settings: Staphylococcus aureus; Gram +; 16 h, 37° C.
Description: as §1

[5] = test system: E. coli; experiment: Fluorescence microscopy (DAPI/PI) of bacterial membranes, E. coli; format: cell-based; settings: 10 μg/mL, 2 h
Description: (§2) Fluorescence microscopy studies were conducted to evaluate the ability of compound 12 to compromise membranes of S. aureus (Gram-positive bacterium) and E. coli (Gram-negative bacterium). Fluorescent agent 4′,6-diamidino-2-phenylindole (DAPI) was used to stain membranes of bacterial cells with blue fluorescence regardless of cell viability, and the red fluorescence of propidium iodide (PI) due to the DNA intercalation was used to stain impaired membranes. After MRSA and E. Coli grew to mid-logarithmic phase, the compound 12 was incubated with the bacteria at 37° C. for 2 h. The mixture was then centrifuged at 5000 rpm for 15 min. The cell pellets were washed with the PBS buffer for three times, and incubated with PI (5 μg/mL) and DAPI (10 μg/mL) for 15 min sequentially on ice in the dark. The mixture was then centrifuged and the pellets were washed with the PBS buffer. Next, 10 μL of the samples were placed on chamber slides and observed under Zeiss Axio Image Zloptical microscope using 100× oil-immersion objective.

[6] = test system: E. coli; experiment: Time-kill study; format: cell-based; settings: for time to completely remove/kill all bacteria: 12.5 μg/mL
Description: The killing activity was monitored for the first 2 h. The concentrations for compound 11 were 2×MIC, 4×MIC, and 8×MIC, respectively.
Time-kill studies were conducted to investigate the bacterial killing kinetics of compounds 11 and 12 by using E. Coli. Briefly, the bacteria […] grew to mid-logarithmic phase in TSB medium, from which the suspension (10^6 CFU/ml) was made. The suspension was incubated with different concentrations of 11 or 12 for 10 min, 30 min, 1 h and 2 h respectively. The mixtures were diluted by 10^2 to 10^4 fold and spread on TSB agar plates. After incubation at 37° C. overnight, the colonies on the plates were counted and plotted against the incubation time. […] Cell colonies were counted in agar plates at 12.5, 25, and 50 μg/mL. Compound 11 at the concentration of 12.5 or 25 μg/mL completely removed all bacteria in 2 hours, and at 50 μg/mL it completely removed bacteria in 0.5 hour. Compound 12 killed E. Coli completely in 0.5 hour at the concentration of 12.5 μg/mL.

[7] = test system: S. aureus; experiment: Fluorescence microscopy (DAPI/PI) of bacterial membranes, S. aureus; format: cell-based; settings: 10 μg/mL, 2 h
Description: as §2

[8] = test system: E. coli; experiment: Drug-resistance study, 14 passages, E. coli; format: cell-based; settings: incubated at ½ MIC every day
Description: (§3) Bacterial resistance tests were conducted using compound 12. The compound was incubated with either MRSA or E. Coli in the well at the concentration of half-MIC (½ MIC, 10^6 CFU/ml) every day and tested for their activity through 14 successive passages.

[9] = test system: MRSA; experiment: Drug-resistance study, 14 passages, MRSA; format: cell-based, S. aureus; settings: incubated at ½ MIC every day
Description: as §3

[10] = test system: K. pneumoniae (ATCC 13383); experiment: MIC against K. pneumoniae; format: cell-based; settings: Klebsiella pneumoniae, ATCC13383; Gram −; 16 h, 37° C.
Description: as §1

[11] = test system: vancomycin-resistant Enterococcus faecalis (ATCC 700802); experiment: MIC against VRE; format: cell-based; settings: Gram +; 16 h, 37° C.
Description: as §1

[12] = test system: human red blood cells (hRBCs); experiment: Hemolytic assay; format: cell-based; settings: concentration causing 50% hemolysis, 37° C., 1 h
Description: Hemolytic assays. The freshly drawn, K2EDTA treated human red blood cells (hRBCs) were washed with 1×PBS buffer, and centrifuged at 3500 rpm for 10 min. The step was repeated until the supernatant became clear. The supernatant was removed, and the RBCs were diluted into 5% v/v suspension. 50 μL of the suspension was incubated with 50 μL of compounds of different concentrations at 37° C. for 1 h. The mixture was centrifuged at 3500 rpm for 10 min. Subsequently, to 30 μL of the supernatant 100 μL PBS was added, and the absorbance of the mixture at 540 nm was read on a Biotek Synergy HT plate reader. The positive control was 2% Triton X-100, and the negative control was 1×PBS alone. The hemolysis activity was calculated by the formula % hemolysis=(Abssample−AbsPBS)/(AbsTriton−AbsPBS)×100%. The experiment was repeated at least three times with duplicates each time.

[13] = test system: Methicillin-resistant S. epidermidis (MRSE, RP62A); experiment: MIC against MRSE; format: cell-based; settings: Staphylococcus epidermidis, Gram +, 16 h, 37° C.
Description: as §1

## N#CNc1cccc(NC(=O)CN2C[C@H](Cc3ccccc3)N(CCCc3ccccc3)C2=N)c1 [Compound 7]
[1]
  antibacterial activity against the tested bacteria (in words): negligible activity

## CCCCCCN1C(=N)N(CC(=O)NCCCCNC(=O)CN2C[C@H](Cc3ccccc3)N(CCCCCC)C2=N)C[C@@H]1Cc1ccccc1 [Compound 13]
[2]
  MIC: 0.75 to 1.5 µg/mL
[3]
  activity against P. aeruginosa (in words): reduced activity

## CCCCCCN1C(=N)N(CC(=O)Nc2cccc(NC(=O)CN3C[C@H](CC(C)C)N(CCCCCC)C3=N)c2)C[C@@H]1CC(C)C [Compound 23]
[4]
  MIC: 0.75 to 1.5 µg/mL
[1]
  antibacterial activity against the tested bacteria (in words): slightly less effective

## CCCCCCN1C(=N)N(CC(=O)Nc2cccc(NC(=O)CN3C[C@H](Cc4ccccc4)N(CCCCCC)C3=N)c2)C[C@@H]1Cc1ccccc1 [Compound 12]
[5]
  membrane disruption (red fluorescence under the PI channel): membranes of these bacteria were disrupted
[6]
  time to completely remove/kill all bacteria: 0.5 h
[7]
  membrane disruption (red fluorescence under the PI channel): membranes of these bacteria were disrupted
[8]
  MIC after 14 passages: virtually constant
[9]
  MIC after 14 passages: virtually constant
[1]
  antibacterial activity against the tested bacteria (in words): potent and broad-spectrum activity

## CCCCCCN1C(=N)N(CC(=O)Nc2ccc(NC(=O)CN3C[C@H](Cc4ccccc4)N(CCCCCC)C3=N)cc2)C[C@@H]1Cc1ccccc1 [Compound 11]
[6]
  time to completely remove/kill all bacteria: 2 h
[6]; 50 μg/mL
  time to completely remove bacteria: 0.5 h
[1]
  antibacterial activity against the tested bacteria (in words): potent and broad-spectrum activity

## CCCCCCN1C(=N)N(CC(=O)NCCCCCCCCNC(=O)CN2C[C@H](Cc3ccccc3)N(CCCCCC)C2=N)C[C@@H]1Cc1ccccc1 [Compound 15]
[3]
  activity against P. aeruginosa (in words): reduced activity

## N=C1N(CC(=O)Nc2cccc(NC(N)=O)c2)C[C@H](Cc2ccccc2)N1CCCc1ccccc1 [Compound 8]
[1]
  antibacterial activity against the tested bacteria (in words): negligible activity

## CCCCCCN1C(=N)N(CC(=O)NCCCOCCOCCOCCCNC(=O)CN2C[C@H](Cc3ccccc3)N(CCCCCC)C2=N)C[C@@H]1Cc1ccccc1 [Compound 16]
[10]
  MIC: > 25 µg/mL
[11]
  MIC: 6 to 12 µg/mL
[4]
  MIC: 0.75 µg/mL
[12]
  Hemolysis (HC50): 200 µg/mL
[2]
  MIC: 1.5 to 3 µg/mL
[1]
  antibacterial activity against the tested bacteria (in words): reduced activity
[13]
  MIC: 1.5 µg/mL
[3]; Pseudomonas aeruginosa, ATCC27853, Gram −, 16 h, 37° C.
  MIC: > 25 µg/mL

## CCCCCCCCN1C(=N)N(CC(=O)Nc2cccc(NC(=O)CN3C[C@H](Cc4ccccc4)N(CCCCCCCC)C3=N)c2)C[C@@H]1Cc1ccccc1 [Compound 18]
[1]
  antibacterial activity against the tested bacteria (in words): decreased activity

## CCCCCCN1C(=N)N(CC(=O)NCCCCCCNC(=O)CN2C[C@H](Cc3ccccc3)N(CCCCCC)C2=N)C[C@@H]1Cc1ccccc1 [Compound 14]
[3]
  activity against P. aeruginosa (in words): reduced activity

## CCCCCCCCN1C(=N)N(CC(=O)Nc2ccc(NC(=O)CN3C[C@H](Cc4ccccc4)N(CCCCCCCC)C3=N)cc2)C[C@@H]1Cc1ccccc1 [Compound 17]
[1]
  antibacterial activity against the tested bacteria (in words): decreased activity
